Data on 1 molecule can be found in patent EP4015040A1, “METHOD FOR TREATING BLOOD DISEASES” (Fundación para la Formación e Investigación Sanitarias de …, priority 2020, dated 2022).

Bounds are passed on as bounds.

In the assay the target is T1, telomerase (Danio rerio, UniProt A2THE9).
T1 sequence (A2THE9 1-1098): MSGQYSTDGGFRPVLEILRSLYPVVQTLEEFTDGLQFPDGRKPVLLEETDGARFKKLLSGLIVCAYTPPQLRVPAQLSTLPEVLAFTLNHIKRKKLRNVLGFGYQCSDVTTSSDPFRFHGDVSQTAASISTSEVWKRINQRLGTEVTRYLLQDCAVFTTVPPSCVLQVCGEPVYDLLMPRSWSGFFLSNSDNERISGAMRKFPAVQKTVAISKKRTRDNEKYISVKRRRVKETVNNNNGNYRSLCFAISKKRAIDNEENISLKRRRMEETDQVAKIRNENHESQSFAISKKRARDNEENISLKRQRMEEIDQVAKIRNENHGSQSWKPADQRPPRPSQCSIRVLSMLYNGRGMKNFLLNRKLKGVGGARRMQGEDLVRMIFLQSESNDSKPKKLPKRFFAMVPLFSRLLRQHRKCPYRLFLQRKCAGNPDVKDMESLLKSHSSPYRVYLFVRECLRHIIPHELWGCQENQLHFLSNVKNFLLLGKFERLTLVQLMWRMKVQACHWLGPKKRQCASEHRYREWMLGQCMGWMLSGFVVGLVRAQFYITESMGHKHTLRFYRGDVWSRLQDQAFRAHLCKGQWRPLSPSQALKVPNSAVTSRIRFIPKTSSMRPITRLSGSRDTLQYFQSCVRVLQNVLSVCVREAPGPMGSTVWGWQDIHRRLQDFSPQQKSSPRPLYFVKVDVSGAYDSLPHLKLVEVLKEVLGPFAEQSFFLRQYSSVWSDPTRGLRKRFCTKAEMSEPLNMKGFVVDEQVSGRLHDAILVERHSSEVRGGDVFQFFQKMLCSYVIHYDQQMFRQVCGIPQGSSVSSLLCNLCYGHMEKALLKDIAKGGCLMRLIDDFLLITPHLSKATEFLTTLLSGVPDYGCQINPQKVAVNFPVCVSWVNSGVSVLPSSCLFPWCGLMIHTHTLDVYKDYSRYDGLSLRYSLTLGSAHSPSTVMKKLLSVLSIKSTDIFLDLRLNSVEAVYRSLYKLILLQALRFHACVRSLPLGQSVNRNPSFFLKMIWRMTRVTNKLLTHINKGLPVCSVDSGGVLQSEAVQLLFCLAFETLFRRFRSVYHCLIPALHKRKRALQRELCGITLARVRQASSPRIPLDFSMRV
Kind of assay: Telomerase activity assay (Q-TRAP) in protein extracts of microinjected larvae. In kind it is in vivo. The note with it: zebrafish; 20 µM microinjected, larvae collected at 48 hpf; read-out: reduction of telomerase activity.

For the molecule `C/C(=C\C(=O)Nc1ccccc1C(=O)O)c1ccc2ccccc2c1` [BIBR1532], the inhibition at 20 µM was over 50%.
